For one series, the target named is EGFR (d746-750)-T790M (Homo sapiens (Human), UniProt P00533, DEL746-750/T790M). The series can be described thus: Mobility Shift Assay, in vitro enzyme-inhibiting activity, EGFR (d746-750)-T790M. The series is classed as biochemical. Conditions: Table 8; Km ATP; read-out: IC50 EGFR (d746-750)-790M. The method, then:
1. Preparation of Reagents
2. Preparation of a Compound Solution
(1) To the second well of a 96-well plate, 5 μL 10 mM compound (dissolved in DMSO) was added, and 95 μL 100% DMSO was added to prepare 100 μL 0.5 mM compound.
(2) To other wells, 60 μL 100% DMSO was added. 20 μL compound from the second well was added to the third well, and 4-fold dilution was further performed to get 10 diluted concentrations.
(3) To the first well and the twelfth well of the 96-well plate, 100 μL 100% DMSO was separately added, and the two wells were used as control wells.
(4) 10 μL from each well of the 96-well plate was added to another 96-well plate, and 90 μL 1-fold kinase buffer was added.
(5) 5 μL from the 96-well plate was added to another 384-well plate, for example, transferred from A1 well of the 96-well plate to A1 and A2 wells of the 384-well plate, and transferred from A2 well of the 96-well plate to A3 and A4 wells of the 384-well plate, and so on.
To 384-well plate, 10 μL 2.5-fold enzyme solution was added, and incubated at room temperature for 10 min.
(5) Kinase reaction and stop
After incubation at 28° C. for a period of time (depending on kinase), 25 μL stop solution was added.
4. Data on percent conversion was read by Caliper.
(1) Data on enzyme activity was obtained by Caliper program;
(2) Inhibition rate of enzyme activity was calculated from the data on enzyme activity by the following formula: Inhibition rate(%)=(maximal value−the measured value of a test compound)/(maximal value-minimal value)×100,
wherein, the maximal value represents the measured value of DMSO control; and the minimal value represents the measured value of blank control.
(3) Calculation of IC50 value by XLFit excel.

The nature of a further series: Pharmacokinetics in dog. The series is classed as in vivo, male Beagle dog. To be noted: Beagle dog; for pharmacokinetic properties (conclusion in words): iv and po, Tables 13 and 14; for AUC(0-t) / clearance / Vd / Cmax / Tmax / bioavailability: male, plasma; for Vd: read-out: Vss; for bioavailability: read-out: F (absolute bioavailability). The method, then: Test animal: male Beagle dog, 3 dogs/administration route/compound, weight: 7-12 kg.
Solvent for intraveneous injection (iv) of Compound 31: 20% DMF (N,N-dimethylformamide)+20% PEG400 (polyethylene glycol 400)+60% sterile water for injection
Compound 31 (15.40 mg) was weighed, dissolved in solvent for intraveneous injection ultrasonically, and mixed homogeneously under vortexing, to get a clear and transparent compound solution at a theoretical concentration of 0.5 mg/mL.
Solvent for intraveneous injection (iv) of Compound 2, 28: 5% DMSO+10% PEG400+85% (28% HP-β-CD)
Compound 2 (20.72 mg) and Compound 28 (16.16 mg) were weighed, respectively, dissolved by adding solvent for intraveneous injection, mixed homogeneously under vortexing, placed in a 50° C. constant temperature water bath for 20 min, and mixed homogeneously under vortexing to get a clear and transparent compound solution at a theoretical concentration of 0.5 mg/mL.
Solvent for intragastric administration (po) of Compound 2, 28, 31: 0.1% Tween 80+2% HPC (hydroxypropyl cellulose)
Preparation: HPC (hydroxypropyl cellulose) (20 g) was weighed, and slowly added to purified water (1000 mL) under stirring. Tween 80 (1 mL) was added, and the mixture was stirred until it became clear, to get a solvent for intragastric administration. Compound 2 (41.77 mg), Compound 31 (31.35 mg) and Compound 28 (31.10 mg) were weighed, respectively, solvent for intragastric administration was added, and the resultant mixture was placed in a tissue grinder, and ground at a speed of 1000 r/min. After homogeneous dispersion, the solution for intragastric administration was obtained.
For PO group: 0.167, 0.5, 1, 2, 4, 6, 8, 24 h after administration.
Blood collection: 400 μL whole blood was collected from vein of dog fore limb at each time point, added to an anticoagulation tube containing K2EDTA, and centrifuged at 8000 r/min, 4° C. for 6 min in a centrifuge to separate the plasma; the separated plasma was stored in a refrigerator at −80° C.
By means of protein precipitation, to 30 μL plasma, 200 μL internal standard (acetonitrile solution containing 50 ng/mL CNX-2006) was added; the resultant mixture was vortexted for 10 min at 1500 r/min, and centrifuged at 12000 r/min for 5 min; to a suitable amount of supernatant, a suitable amount of water was added; the resultant mixture was mixed homogeneously under vortexing and analyzed by LC-MS/MS.

Series [1] in a line: Pharmacokinetics in nude mouse. The series is classed as in vivo. Conditions: female, BALB/c nude, plasma; for bioavailability: read-out: F (absolute bioavailability). The method, then: Test animal: female nude mouse (BALB/c), weight: 20-25 g/mouse.
Solvent for intraveneous injection (iv): 5% DMSO+10% PEG400+85% (28% HP-β-CD)
Solvent for intragastric administration (po): 2% HPC+0.1% Tween 80
0.1283 mL and 0.1059 mL 1M hydrochloric acid solution were separately added to adjust pH to 4.
Compound 2, 27: Compound 27 (3.18 mg) and Compound 2 (3.17 mg) were weighed, respectively, and solvent for intraveneous injection was added to prepare a clear and transparent solution at a theoretical concentration of 1.0 mg/mL.
After homogeneous dispersion, a suspension at a theoretical concentration of 1.0 mg/mL was obtained.
Collection time point: 0.083 h, 0.25 h, 0.5 h, 1 h, 2 h, 4 h, 6 h, 8 h after administration.
60 μL whole blood was collected from intraocular canthus at each time point, and was centrifuged at 8000 r/min for 6 min in a low-temperature centrifuge to separate plasma; the plasma was stored in a refrigerator at −80° C.
The plasma sample of Compound 2 was analyzed by means of protein precipitation: 10 μL plasma was transferred to a 1.5 mL EP tube, 10 μL blank plasma was added, and the mixture was mixed homogeneously under vortexing. 200 μL internal standard (acetonitrile solution containing 25 ng/mL CNX-2006) was added; the resultant mixture was vortexted for 3 min, and then centrifuged at 12000 rpm for 5 min; 150 μL supernatant was accurately taken, to which 50 μL purified water was added. The resultant mixture was vortexed for 3 min and analyzed by LC-MS/MS.

Setting [2] is: po, 7.6 mg/kg, solid dispersed sample in pH 4.0 buffer.

This is an account of results in US10300058B2, “Tyrosine kinase inhibitor and uses thereof” (Xuanzhu Pharma Co., Ltd., priority 2014, dated 2019).

pIC50: −log10 of the molar value.

Chain of EGFR (d746-750)-T790M (P00533 other isoform, or with tags, fused parts or gaps T790M/del 1-668/del 746-750 limits assumed): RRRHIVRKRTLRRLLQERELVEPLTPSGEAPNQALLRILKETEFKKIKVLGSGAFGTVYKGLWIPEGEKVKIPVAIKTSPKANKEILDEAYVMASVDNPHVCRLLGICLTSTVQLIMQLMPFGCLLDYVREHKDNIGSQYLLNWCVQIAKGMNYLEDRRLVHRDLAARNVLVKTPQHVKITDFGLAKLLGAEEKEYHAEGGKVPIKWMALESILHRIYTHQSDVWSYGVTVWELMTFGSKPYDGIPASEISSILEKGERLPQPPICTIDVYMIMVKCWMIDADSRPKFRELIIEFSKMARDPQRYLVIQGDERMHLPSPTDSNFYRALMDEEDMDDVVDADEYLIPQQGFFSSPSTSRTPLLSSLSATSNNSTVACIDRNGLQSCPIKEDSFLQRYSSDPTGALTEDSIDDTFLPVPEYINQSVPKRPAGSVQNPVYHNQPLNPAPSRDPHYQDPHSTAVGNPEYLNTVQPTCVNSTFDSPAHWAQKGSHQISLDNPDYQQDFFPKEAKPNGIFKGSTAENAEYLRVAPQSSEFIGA

Regarding `C=CC(=O)Nc1cccc(Nc2nc(Nc3ccc(N4CCC(N5CCOCC5)CC4)cc3OC)ncc2C(F)(F)F)c1` [Compound 28, N-(3-((2-((2-methoxy-4-(4-morpholinopiperidin-1-yl)phenyl)amino)-5-(trifluoromethyl)pyrimidin-4-yl)amino)phenyl)acrylamide], the pIC50 (commonly the IC50 on a negative log10 scale, so that one unit is a factor of ten) at EGFR (d746-750)-T790M was 9.10. Further, the “pharmacokinetic properties (conclusion in words)” value (“pharmacokinetic properties” below) in “Pharmacokinetics in dog” is on record as “good pharmacokinetic properties”. Also, in the series “Pharmacokinetics in dog” (iv, 0.5 mg/kg), the AUC(0-t) – broadly, the area under the concentration-time curve up to a stated or last time point – was found to be 1580 ng·h/mL; the clearance – broadly, the volume of plasma or blood freed of the substance per unit of time – is 5.5 mL/min/kg; the Vd came out at 1.1 L/kg. In the series “Pharmacokinetics in dog” (po, 1.28 mg/kg), the AUC(0-t) is 1820 ng·h/mL; the Cmax – broadly, the maximum level reached in the sampled fluid or tissue – worked out at 523 ng/mL; the Tmax (in general, the time from dosing to the highest level) was 1 h; the bioavailability (as a rule, the share of a dose that reaches the circulation, judged against a reference dose that is usually intravenous) was determined as 46%.
As to `C=CC(=O)Nc1cccc(Nc2nc(Nc3ccc(C4CCN(C(C)=O)CC4)cc3OC)ncc2C(F)(F)F)c1` [Compound 2, N-(3-((2-((4-(1-acetylpiperidin-4-yl)-2-methoxyphenyl)amino)-5-(trifluoromethyl)pyrimidin-4-yl)amino)phenyl)acrylamide], the “pharmacokinetic properties” value in “Pharmacokinetics in dog” is “good pharmacokinetic properties”. Moreover, in the series “Pharmacokinetics in dog” (iv, 0.5 mg/kg), the AUC(0-t) was 693 ng·h/mL, the clearance was 11.8 mL/min/kg and the Vd was found to be 1.36 L/kg. Besides, in “Pharmacokinetics in dog” (po, 0.54 mg/kg), the AUC(0-t) is 528 ng·h/mL, the Cmax was found to be 211 ng/mL, the Tmax turned out to be 0.5 h and the bioavailability turned out to be 70%. In series [1] (iv, 5 mg/kg), this compound showed an exposure AUC(0-t) of 6300 ng·h/mL and a clearance of 13.2 mL/min/kg. In series [1] (po, 10 mg/kg), the AUC(0-t) amounted to 5660 ng·h/mL and the bioavailability was found to be 48%.
For `C=CC(=O)Nc1cccc(Nc2nc(Nc3ccc(C4CCN(S(C)(=O)=O)CC4)cc3OC)ncc2C(F)(F)F)c1` [Compound 27, N-(3-((2-((2-methoxy-4-(1-(methylsulfonyl)piperidin-4-yl)phenyl)amino)-5-(trifluoromethyl)pyrimidin-4-yl)amino)phenyl)acrylamide], the pIC50 at EGFR (d746-750)-T790M is 8.44. In series [1] (iv, 5 mg/kg), this compound had an AUC(0-t) of 11600 ng·h/mL and a clearance of 7.17 mL/min/kg. In series [1] (setting [2]), the exposure AUC(0-t) came out at 9790 ng·h/mL and the bioavailability was 56%.
For `C=CC(=O)Nc1cccc(Nc2nc(Nc3ccc(N4CC5(CN(C(C)=O)C5)C4)cc3OC)ncc2C(F)(F)F)c1` [Compound 31, N-(3-((2-((4-(6-acetyl-2,6-diazaspiro[3.3]heptan-2-yl)-2-methoxyphenyl)amino)-5-(trifluoromethyl)pyrimidin-4-yl)amino)phenyl)acrylamide], in the series “Pharmacokinetics in dog”, the “pharmacokinetic properties” value is given as “good pharmacokinetic properties”. For the same compound, in “Pharmacokinetics in dog” (iv, 0.5 mg/kg), the AUC(0-t) amounted to 1270 ng·h/mL, the clearance was 6.67 mL/min/kg and the Vd was 0.38 L/kg. For the same compound, in “Pharmacokinetics in dog” (po, 1 mg/kg), the AUC(0-t) turned out to be 545 ng·h/mL, the concentration peaked (Cmax) at 261 ng/mL, the Tmax turned out to be 1 h and the bioavailability is 23%.
